Test results as given in patent US20080081781A1, “Methods and compositions for the treatment of metabolic syndrome” (priority 2004, published 2008).

Tests used:
HepG2 cells = experiment: Glucose consumption of HepG2 cells with insulin, with or without InsR siRNA; assay type: cell-based, human; conditions: […] berberine, 0.5 nM insulin, 12 hr
Method: Human InsR siRNA duplex, non-specific control siRNA, siRNA transfection reagent and siRNA transfection medium were obtained from Santa Cruz Biotechnology, Inc. (Santa Cruz, Calif.) and the vendor's siRNA transfection procedure was followed. Briefly, HepG2 cells were seeded onto six-well plates in antibiotic-free RPMI-1640 medium containing 10% fetal bovine serum (FBS). After 60-80% confluence of monolayer, FBS containing medium was discarded and cells were washed with siRNA transfection medium (2 mVwell). 0.8 ml of siRNA transfection medium containing 6 μl of human InsR siRNA duplex (or control siRNA) and 6 ld^1 of siRNA transfection reagent were well mixed at room temperature for 30 min, followed by loading onto washed HepG2 cells. After an 8 hr incubation, the transfection mixture was removed and fresh RPMI-1640 medium supplied with 10% FBS was added. The cells were then incubated for 24 hr. Then, the culture medium was replaced with fresh medium and incubated for an additional 24 hr. At the end of incubation, FBS containing medium was removed and replaced with serum-free fresh RPMI-1640 medium. […] After 12 hr incubation, the amount of glucose in the sample medium was determined. The glucose consumption was calculated according to the following formula: glucose level of the fresh RPMI-1640 minus glucose level of the used RPMIN-1640. […]

LDLR mRNA 3'UTR = experiment: Luc-LDLR 3'UTR chimeric transcripts in transfected HepG2 cells; assay type: cell-based, human; conditions: transfected HepG2, berberine eight hours
Source text: Three consecutive fragments of LDLR 3 ′UTR were inserted into a cytomegalovirus promoter driven Luc plasmid (pLuc) at the 3′ end of the Luc coding sequence before the SV40 polyadenylation signal. The wild-type Luc reporter plasmid pLuc was constructed by insertion of the Luc cDNA into the HindIII and Xba sites of pcDNA3.1/Zeo(+). Addition of the LDLR 3/UTR was accomplished by PCR amplifying different regions of the 2.5 kb 3′UTR of LDLR mRNA using XbaI-tailed primers and pLDLR3 as the template. The wild type pLuc and the chimeric plasmids pLuc-UTR-2, UTR-3 and UTR-4 were transfected into HepG2 cells (FIG. 11). Cells seeded in culture dishes were transiently transfected with the chimeric plasmids. Twenty-four hours after transfection, cells were trypsinized and reseeded equally into two dishes for each plasmid transfection. After overnight incubation, one dish was treated with dimethylsulfoxide as the solvent control and another was treated with berberine for eight hours. […]
To create ARE deletion constructs, an Apa site at nt 3,384 was generated for deleting ARE3, and an Apa1 site at nt 3,334 for deleting ARE2 by site-directed mutagenesis using pLuc/UTR-2 as the template. […] The effects of berberine on the chimeric Luc transcripts were determined by measuring Luc mRNA using a quantitative real-time RT-PCR assay. […]

LDLR = experiment: Cell surface LDLR protein on Bel-7402 cells (FACS); assay type: cell-based, human; conditions: Bel-7402 cells treated with 5 μg/ml
Method: Bel-7402 cells treated with 5 μg/ml of berberine were detached with cell removal buffer containing EDTA, washed and resuspended in FACS solution (PBS with 0.5% BSA and 0.02% sodium azide) at a density of 1×10^6 cells/ml. Cells were then incubated with monoclonal antibody to LDLR (Santa Cruz Biotechnology, Inc., Santa Cruz, Calif.) at a final dilution of 1:50 and left at room temperature for 1 hour. The cells were then reacted with isotope matched, nonspecific mouse IgG as a control for nonspecific staining. The cells were then washed and stained with FITC conjugated goat antibody to mouse IgG (Santa Cruz Biotechnology, Inc., Santa Cruz, Calif., 1:100 dilution) and the fluorescence intensity was analyzed by FACS (FACSort, Becton Dickinson, Franklin Lakes, N.J.).

in vivo = conditions: beagle, dog, iv, 100 mg/kg
Method: Four beagles were injected intravenously with 100 mg/kg of berberine. Using a two compartment model, the pharmacokinetic parameter estimates were as follows: […]

Structure (SMILES): COc1ccc2cc3[n+](cc2c1OC)CCc1cc2c(cc1-3)OCO2 [berberine]
- glucose consumption of human hepatic cells treated with insulin (HepG2 cells): significantly increased
- expressions of LucUTR-3 and Luc-UTR-4 or the wild type (LDLR mRNA 3'UTR): without affecting
- increase of level of Luc-UTR-2 mRNA (LDLR mRNA 3'UTR): 2.5 fold
- increase of cell surface LDLR protein expression (LDLR): 4 times
- AUC (in vivo): 1980 ± 1140 ng·h/mL
- clearance (in vivo): 1010 mL/min
- half-life (in vivo): 12.6 ± 8.83 h
